Reference: ChEMBL document CHEMBL1201862, “PubChem BioAssay data set” (2004)
Activity calls are given as the source filed them.

How the values were obtained:
[1] = growth inhibition of yeast DHODH-expressing 3D7 parasites – SYBR Green, dry powder samples, dose response (AID 1159570); format: functional, cell-based;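 further: parasite growth measured after 72 hours of compound exposure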
[2] = P. falciparum Dd2 growth inhibitors, dose response, SYBR Green, cherry-picked samples (AID 1159567); format: functional, cell-based
[3] = Dd2 malaria parasite growth inhibition potency – SYBR Green, dry powder samples, dose response (AID 1159566); format: functional, cell-based;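 further: potency for growth inhibition with lower SYBR green DNA signal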
[4] = growth inhibition of PfATP4-mutant resistant parasites – NITD609-resistant line, SYBR Green, dry powder, dose response (AID 1159571); format: functional, cell-based;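 further: parasites synchronized at ring stage by sorbitol before testing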
[5] = Dd2 parasite growth inhibition in erythrocytes – SYBR Green, dry powder samples, set 9, dose response (AID 1159568); format: functional, cell-based
[6] = target: T1, Sentrin-specific protease 8 (Homo sapiens, UniProt Q96LD8); format: functional;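 further: luminescence read-out of SENP8 inhibition, dose-response confirmation following an ultra-high-throughput screen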
T1 sequence (Q96LD8 whole entry): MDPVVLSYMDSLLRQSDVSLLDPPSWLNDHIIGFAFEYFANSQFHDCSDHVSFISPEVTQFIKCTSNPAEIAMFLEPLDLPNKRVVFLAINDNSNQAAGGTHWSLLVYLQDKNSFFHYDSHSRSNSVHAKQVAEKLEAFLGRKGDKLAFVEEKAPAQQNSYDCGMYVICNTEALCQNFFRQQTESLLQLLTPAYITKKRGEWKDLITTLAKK

[7] = target: T2, Sentrin-specific protease 6 (Homo sapiens, UniProt Q9GZR1); format: functional;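 further: Luminescence-based dose-response confirmatory assay of SENP6 inhibition, following up an ultra-high-throughput screen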
T2 sequence (Q9GZR1 whole entry): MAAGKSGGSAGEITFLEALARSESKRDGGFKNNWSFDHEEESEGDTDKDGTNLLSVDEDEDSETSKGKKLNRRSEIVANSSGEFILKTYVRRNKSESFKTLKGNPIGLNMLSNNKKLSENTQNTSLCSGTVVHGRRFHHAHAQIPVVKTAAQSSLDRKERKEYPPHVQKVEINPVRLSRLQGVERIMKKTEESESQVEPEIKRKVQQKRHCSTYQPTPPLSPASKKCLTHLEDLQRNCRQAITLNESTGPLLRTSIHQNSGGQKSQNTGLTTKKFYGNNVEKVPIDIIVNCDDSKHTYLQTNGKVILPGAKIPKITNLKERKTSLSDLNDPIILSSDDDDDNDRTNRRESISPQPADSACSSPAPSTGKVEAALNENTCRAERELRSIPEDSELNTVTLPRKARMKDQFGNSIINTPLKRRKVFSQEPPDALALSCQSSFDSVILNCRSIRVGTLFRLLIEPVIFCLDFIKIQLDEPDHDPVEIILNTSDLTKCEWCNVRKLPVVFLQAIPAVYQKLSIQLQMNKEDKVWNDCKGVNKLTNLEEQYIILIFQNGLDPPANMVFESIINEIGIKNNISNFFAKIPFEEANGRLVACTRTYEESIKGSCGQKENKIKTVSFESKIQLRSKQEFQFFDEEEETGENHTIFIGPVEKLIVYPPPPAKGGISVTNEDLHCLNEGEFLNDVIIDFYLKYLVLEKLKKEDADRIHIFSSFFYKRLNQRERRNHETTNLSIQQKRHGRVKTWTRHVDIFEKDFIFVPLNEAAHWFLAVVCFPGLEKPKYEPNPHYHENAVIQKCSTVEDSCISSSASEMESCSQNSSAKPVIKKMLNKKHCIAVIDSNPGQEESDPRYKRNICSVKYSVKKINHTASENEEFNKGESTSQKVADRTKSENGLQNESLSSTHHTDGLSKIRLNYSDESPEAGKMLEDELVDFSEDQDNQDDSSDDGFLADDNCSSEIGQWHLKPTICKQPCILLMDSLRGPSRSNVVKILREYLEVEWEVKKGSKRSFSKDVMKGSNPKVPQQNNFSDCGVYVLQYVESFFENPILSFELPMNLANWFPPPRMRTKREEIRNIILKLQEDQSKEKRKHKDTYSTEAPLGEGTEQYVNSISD

[8] = cells
[9] = target: T3, Sentrin-specific protease 7 (Homo sapiens, UniProt Q9BQF6); format: functional;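 further: Luminescence-based dose-response confirmation of ultra-high-throughput screening hits, measuring inhibition of SENP7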
T3 sequence (Q9BQF6 whole entry): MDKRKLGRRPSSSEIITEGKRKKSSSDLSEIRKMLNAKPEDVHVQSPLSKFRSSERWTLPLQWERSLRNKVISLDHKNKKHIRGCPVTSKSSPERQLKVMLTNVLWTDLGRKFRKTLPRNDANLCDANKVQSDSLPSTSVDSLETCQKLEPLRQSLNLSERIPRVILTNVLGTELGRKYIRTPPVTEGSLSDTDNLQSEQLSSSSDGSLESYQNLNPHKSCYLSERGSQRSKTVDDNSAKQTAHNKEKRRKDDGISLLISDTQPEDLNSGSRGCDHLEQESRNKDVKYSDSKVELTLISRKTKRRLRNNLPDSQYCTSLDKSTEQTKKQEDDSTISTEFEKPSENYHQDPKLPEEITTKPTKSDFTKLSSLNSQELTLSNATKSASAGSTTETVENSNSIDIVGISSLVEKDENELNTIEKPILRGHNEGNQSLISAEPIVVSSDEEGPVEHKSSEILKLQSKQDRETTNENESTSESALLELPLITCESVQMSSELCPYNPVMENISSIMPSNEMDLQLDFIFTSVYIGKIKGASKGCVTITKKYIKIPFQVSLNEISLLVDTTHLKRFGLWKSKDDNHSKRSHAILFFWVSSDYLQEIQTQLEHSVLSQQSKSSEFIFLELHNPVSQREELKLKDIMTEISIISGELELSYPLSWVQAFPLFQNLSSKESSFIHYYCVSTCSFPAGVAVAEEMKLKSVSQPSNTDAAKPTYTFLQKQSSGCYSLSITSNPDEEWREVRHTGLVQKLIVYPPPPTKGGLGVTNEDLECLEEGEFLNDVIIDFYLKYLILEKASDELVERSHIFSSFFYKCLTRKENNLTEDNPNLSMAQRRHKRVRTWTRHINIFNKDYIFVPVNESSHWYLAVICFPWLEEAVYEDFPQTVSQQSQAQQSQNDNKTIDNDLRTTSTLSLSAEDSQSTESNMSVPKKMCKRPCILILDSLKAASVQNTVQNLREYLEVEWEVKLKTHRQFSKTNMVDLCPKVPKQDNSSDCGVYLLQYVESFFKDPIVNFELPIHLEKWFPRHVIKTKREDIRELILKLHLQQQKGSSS

[10] = target: T4, Oxysterols receptor LXR-beta (Homo sapiens, UniProt P55055); format: functional, cell-based;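 further: Cell-based luminescence dose-response assay of agonist activity at LXR, run as a confirmatory counterscreen to a daf-12 agonist screen; HEK293 cells with Gal4-LXR fusion and GAL4-driven luciferase reporter; agonist potency from rising luciferase signal of a Gal4-LXR reporter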
T4 sequence (P55055 whole entry): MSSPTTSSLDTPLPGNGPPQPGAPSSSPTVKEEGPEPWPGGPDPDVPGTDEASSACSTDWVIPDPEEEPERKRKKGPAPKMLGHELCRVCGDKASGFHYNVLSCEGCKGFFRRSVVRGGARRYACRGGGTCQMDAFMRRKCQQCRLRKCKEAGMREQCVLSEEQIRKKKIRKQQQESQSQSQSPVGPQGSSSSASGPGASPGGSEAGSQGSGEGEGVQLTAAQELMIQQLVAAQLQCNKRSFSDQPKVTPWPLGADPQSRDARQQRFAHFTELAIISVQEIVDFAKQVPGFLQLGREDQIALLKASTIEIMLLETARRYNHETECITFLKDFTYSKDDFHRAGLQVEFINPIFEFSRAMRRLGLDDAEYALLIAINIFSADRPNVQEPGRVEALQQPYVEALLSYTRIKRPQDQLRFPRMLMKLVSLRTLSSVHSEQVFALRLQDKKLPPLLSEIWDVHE

[11] = target: T5, Caspase-3 (Homo sapiens, UniProt P42574); format: functional;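 further: Dose-response selectivity test against caspase-3 for candidate inhibitors of sentrin-specific proteases (SENPs)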
T5 sequence (P42574 whole entry): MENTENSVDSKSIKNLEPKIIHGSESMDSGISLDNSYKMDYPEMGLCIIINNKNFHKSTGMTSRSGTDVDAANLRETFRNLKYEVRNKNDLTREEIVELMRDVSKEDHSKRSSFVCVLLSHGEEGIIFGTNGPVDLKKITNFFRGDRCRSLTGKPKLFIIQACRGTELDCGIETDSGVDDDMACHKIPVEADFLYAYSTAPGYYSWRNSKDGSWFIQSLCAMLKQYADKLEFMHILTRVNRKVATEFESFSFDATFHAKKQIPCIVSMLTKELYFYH

[12] = target: Paired box protein Pax-8 (Homo sapiens, UniProt Q06710); test: PAX8 transcriptional activity inhibition in RMG-I – RMG-I cells, luciferase, cherry-pick, dose response (AID 687027); format: functional, cell-based;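 further: luciferase reporter driven by Pax8 target thyroperoxidase promoter measured by SteadyGlo luminescence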
[13] = OVCAR-3 cell viability loss – plate reader, dry powder samples, PAX8 inhibitor project, dose response (AID 743044); format: functional, cell-based
[14] = OVCAR8 cell viability loss – plate reader, dry powder samples, PAX8 project, dose response (AID 743197); format: functional, cell-based; conditions: OVCAR-8
[15] = Reduced DLD-1 viability, concentration-response, CellTiter-Glo luminescence (AID 1117352); format: functional
[16] = rise of 4N DNA cells, HeLa – IC50, dose response (AID 1117351); format: functional, cell-based
[17] = SNU-C1 cell viability reduction, dose response, CellTiter-Glo luminescence (AID 1117323); format: functional, cell-based
[18] = cytotoxicity toward Colo320 cells – cell-based, CellTiter-Glo luminescence, IC50, dose response (AID 1117334); format: functional; conditions: COLO 320
[19] = cytotoxicity toward HT-29 cells – cell-based, CellTiter-Glo luminescence, IC50, dose response (AID 1117330); format: functional
[20] = rise of 2N DNA cells, HeLa – IC50, dose response (AID 1117349); format: functional, cell-based
[21] = HCT116 cell viability decrease, GSK3B pretreatment – CellTiter-Glo, IC50, dose response (AID 1117339); format: functional; conditions: HCT-116
[22] = RKO cell viability reduction, dose response, CellTiter-Glo luminescence (AID 1117322); format: functional
[23] = cytotoxicity toward HCT116 cells – cell-based, CellTiter-Glo luminescence, IC50, dose response (AID 1117332); format: functional; conditions: HCT-116
[24] = A549 cell cytotoxicity, dose response, cytotoxicity control, plate reader, cherry-pick, antagonist series (AID 743412); format: functional, cell-based
[25] = blockers of bursicon-stimulated LGR2 cAMP reporter – cell-based, HEK293, CRE-luciferase reporter, cherry pick, set 2, dose response (AID 743343); format: functional;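 further: transfected cells were stimulated with diluted bursicon conditioned medium after compound addition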
[26] = blockade of melanocortin 4 receptor signaling – cell-based, plate reader, cherry pick, counter-screen for LGR2 antagonist project, dose response (AID 743444); format: functional;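 further: transfected HEK 293 cells stimulated with alpha-MSH peptide; potency of inhibitors of the alpha-MSH evoked signal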
[27] = toxicity toward HepG2 liver cells – cell-based, plate reader, cherry-pick, antagonist series, cytotoxicity control, dose response (AID 743416); format: functional
[28] = viability loss in HEK293 cells – cell-based, plate reader, cherry-picked samples, cytotoxicity control, dose response (AID 743446); format: functional
[29] = test system: Streptococcus; test: GAS UMAA2166 growth inhibition – luminescence, BacTiterGlo, counter-screen for streptokinase expression inhibitor project, dose response (AID 1915); format: functional, organism-based;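 further: potency for reduction of bacterial viability or growth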
[30] = target: Disintegrin and metalloproteinase domain-containing protein 17 (Homo sapiens, UniProt P78536); test: inhibition of ADAM17 substrate cleavage – biochemical, quenched FRET substrate, counter-screen for ADAM10 exosite inhibitor project, dose response (AID 743253)
[31] = test system: Streptococcus sp. 'group A'; test: Streptococcus pyogenes SK(-)GAS viability under kanamycin – luminescence, BacTiterGlo, confirmation, counter-screen for streptokinase expression inhibitor project, dose response (AID 1900); format: functional, organism-based
[32] = target: T6, Streptokinase A (Streptococcus pyogenes serotype M1, UniProt P10520); test: viability-normalized secreted streptokinase activity reduction – plasminogen activation absorbance, OD405, dose response (AID 1914); format: functional, Streptococcus pyogenes M1 GAS;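 further: secreted streptokinase activity via plasminogen activation per viability signal from cell pellet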
T6 sequence (P10520 whole entry): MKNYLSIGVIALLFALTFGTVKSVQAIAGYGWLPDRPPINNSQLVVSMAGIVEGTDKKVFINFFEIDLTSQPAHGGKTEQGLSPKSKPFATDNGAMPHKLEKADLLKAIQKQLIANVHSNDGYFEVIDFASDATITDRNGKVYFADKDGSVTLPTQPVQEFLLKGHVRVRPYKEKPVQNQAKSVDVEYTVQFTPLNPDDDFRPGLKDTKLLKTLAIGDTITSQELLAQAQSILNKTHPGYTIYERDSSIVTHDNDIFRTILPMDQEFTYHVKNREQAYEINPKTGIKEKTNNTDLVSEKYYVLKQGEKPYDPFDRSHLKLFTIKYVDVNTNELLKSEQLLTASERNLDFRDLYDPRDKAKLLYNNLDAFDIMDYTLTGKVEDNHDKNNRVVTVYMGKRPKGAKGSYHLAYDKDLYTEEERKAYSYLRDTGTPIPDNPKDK

Chain of Disintegrin and metalloproteinase domain-containing protein 17 (P78536 whole entry, the tested form may be a part): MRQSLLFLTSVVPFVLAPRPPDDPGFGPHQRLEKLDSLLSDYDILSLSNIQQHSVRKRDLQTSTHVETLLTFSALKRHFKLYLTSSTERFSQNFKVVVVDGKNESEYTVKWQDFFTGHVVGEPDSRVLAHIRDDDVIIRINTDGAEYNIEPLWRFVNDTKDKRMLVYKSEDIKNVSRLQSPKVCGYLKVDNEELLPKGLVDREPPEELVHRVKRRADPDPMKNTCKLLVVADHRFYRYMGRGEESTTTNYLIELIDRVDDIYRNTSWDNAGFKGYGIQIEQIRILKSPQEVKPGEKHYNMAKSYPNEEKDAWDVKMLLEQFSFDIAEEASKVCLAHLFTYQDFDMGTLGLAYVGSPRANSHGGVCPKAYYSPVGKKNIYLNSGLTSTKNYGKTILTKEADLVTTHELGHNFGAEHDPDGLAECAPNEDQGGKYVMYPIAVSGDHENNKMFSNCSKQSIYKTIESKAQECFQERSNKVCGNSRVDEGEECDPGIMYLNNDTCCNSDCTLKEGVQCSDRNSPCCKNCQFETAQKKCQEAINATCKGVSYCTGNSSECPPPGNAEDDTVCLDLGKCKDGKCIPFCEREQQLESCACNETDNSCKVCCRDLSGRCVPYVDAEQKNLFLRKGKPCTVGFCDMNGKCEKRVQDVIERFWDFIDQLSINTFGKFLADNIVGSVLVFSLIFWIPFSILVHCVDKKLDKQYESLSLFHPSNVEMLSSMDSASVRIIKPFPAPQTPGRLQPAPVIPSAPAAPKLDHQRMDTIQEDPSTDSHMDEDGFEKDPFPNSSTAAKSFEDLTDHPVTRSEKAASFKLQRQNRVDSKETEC
Chain of Paired box protein Pax-8 (Q06710 whole entry): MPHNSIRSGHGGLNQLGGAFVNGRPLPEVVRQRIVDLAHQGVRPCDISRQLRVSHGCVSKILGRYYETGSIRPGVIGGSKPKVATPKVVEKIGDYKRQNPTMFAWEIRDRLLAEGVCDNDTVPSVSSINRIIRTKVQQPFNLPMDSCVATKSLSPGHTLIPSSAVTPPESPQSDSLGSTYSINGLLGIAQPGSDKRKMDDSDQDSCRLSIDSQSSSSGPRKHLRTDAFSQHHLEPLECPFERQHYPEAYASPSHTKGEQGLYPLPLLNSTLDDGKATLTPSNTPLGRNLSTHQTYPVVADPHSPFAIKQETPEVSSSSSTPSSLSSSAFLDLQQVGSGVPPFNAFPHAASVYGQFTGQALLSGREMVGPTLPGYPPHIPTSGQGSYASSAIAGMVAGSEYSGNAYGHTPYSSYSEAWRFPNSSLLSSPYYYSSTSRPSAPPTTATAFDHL

COc1ccc(C#Cc2ccc3c(c2)O[C@@H](CN(C)C(=O)Nc2cccc(OC)c2)[C@@H](C)CN([C@H](C)CO)S3(=O)=O)cc1
active: AC50 [1] 0.473 µM | AC50 [2] 1.07 µM | AC50 [3] 0.49 µM | AC50 [4] 0.494 µM | AC50 [5] 0.466 µM

NC(=O)c1c(NC(=O)c2ccccc2)sc2c1CCC2
active: IC50 [9] 7.52 µM | IC50 [11] 27.7 µM
inactive: IC50 [6] > 100 µM | IC50 [7] > 100 µM | EC50 [8] > 67.5 µM | EC50 [10] > 67.5 µM

C[C@@H]1CN([C@H](C)CO)C(=O)c2cc(NC(=O)Nc3ccc(F)cc3)ccc2O[C@@H](C)CCCCO[C@H]1CN(C)C(=O)Nc1ccc(C(F)(F)F)cc1
active: AC50 [12] 5.23 µM | AC50 [13] 35 µM | AC50 [14] 39.3 µM

Nc1nc(Cl)nc2c1ncn2[C@@H]1O[C@H](CO)[C@@H](O)[C@@H]1F [CLOFARABINE]
active: IC50 [15] 0.164 µM | IC50 [21] 0.001 µM | IC50 [22] 0.001 µM | IC50 [23] 0.001 µM
inactive: IC50 [16] > 10 µM | IC50 [17] > 20 µM | IC50 [18] > 20 µM | IC50 [19] > 20 µM | IC50 [20] > 10 µM

O=C1C(/C=N/Cc2ccco2)=C(O)c2ccccc21
inactive: EC50 [8] > 67.5 µM | EC50 [10] > 67.5 µM

NC(=O)c1ccsc1NC(=O)c1ccc2c(c1)CCCC2
active: AC50 [24] 14.1 µM | AC50 [25] 9.99 µM | AC50 [26] 15.2 µM | AC50 [27] 42.4 µM | AC50 [28] 31.4 µM
inactive: EC50 [8] > 67.5 µM | EC50 [10] > 67.5 µM

CCc1ccc(NC(=O)c2ccc(F)c(S(=O)(=O)NCC3COc4ccccc4O3)c2)cc1 (configuration not stated)
active: EC50 [29] 18.4 µM | EC50 [31] 10.7 µM | EC50 [32] 35.2 µM
inactive: IC50 [30] > 69.5 µM

O=C(C[C@@H]1C[C@H]2c3cc(NC(=O)c4ccc5c(c4)OCO5)ccc3O[C@H]2[C@H](CO)O1)NCc1ccc(Oc2ccccc2)cc1
active: AC50 [5] 25.6 µM
